In paper PMC8116058, “De novo macrocyclic peptides dissect energy coupling of a heterodimeric ABC transporter by multimode allosteric inhibition” (eLife, 2021):
Positions of bridges follow the written chain, without caps; N, C: chain ends. Non-standard residues stand in square brackets, D forms with d. Residues, ends and D or L forms follow the SMILES beside them. *: point of attachment. 5FAM = O=C1OC2(c3ccc(O)cc3Oc3cc(O)ccc32)c2ccc(C(=O)*)cc21; βAla = NCCC(=O)O

System: wild-type TmrAB in liposomes
Test: Single-liposome flow cytometry transport assay
Format: biochemical, Thermus thermophilus
Details: for Peptide transport in two successive IF-to-OF cycles: 5 min 45°C / 60 min 4°C, repeated; for Effect on C4^ATTO655 peptide translocation / Transported C4^ATTO655, Peptides/liposome / Peptides/liposome, time course / Mean fluorescence intensity * 10^3, time course / C4^ATTO655 peptides per liposome transported along a single IF-to-OF switch: CP^F 1 µM; for Effect on C4^ATTO655 peptide translocation / Transported C4^ATTO655, Peptides/liposome / C4^ATTO655 peptides per liposome transported along a single IF-to-OF switch: 5 min 45°C; for Transported C4^ATTO655, Peptides/liposome: TmrAB 0.4 µM, ATP 3 mM, ATP without CP 84.57, ADP 3.52; for Transported C4^ATTO655, Peptides/liposome / Peptides/liposome, time course / Mean fluorescence intensity * 10^3, time course: C4^ATTO655 1 µM; for Peptides/liposome, two consecutive transport cycles: ADP background corrected; for Peptides/liposome, time course: corrected by ADP background; for C4^ATTO655 peptides per liposome transported along a single IF-to-OF switch: ~30 transport-competent TmrAB per liposome; for Peptide transport rate compared to control without CP^Fs / Turnover of wild-type TmrAB over long-term incubation: period of 40 min at 45°C
Procedure: To investigate whether an IF-to-OF transition and conformational arrest by CP13^F or CP14^F can still result in a productive substrate translocation, we followed peptide transport by wild-type TmrAB by single liposome-based flow cytometry (Figure 6A). […] CPs block multiple-turnover transport monitored by quantitative flow cytometry. (A) Single turnover by IF-to-OF switch monitored by single-liposome flow cytometry. […] Transport reactions were stopped by the addition of EDTA (10 mM). 100,000 proteoliposomes were analyzed by flow cytometry monitoring fluorescein and ATTO655 intensities. […] (C, D) Slowdown of multiple-turnover substrate transport. […] Transported peptides per liposomes were evaluated and corrected by ADP background levels as described in (B). Transport kinetics were fitted monoexponentially. […] (E) Two consecutive transport cycles. […] Transported peptides per liposome were evaluated as described in (B) and corrected by background levels in the presence of ADP. […] Figure 6-source data 1. Source data for Figure 6. Figure 6-figure supplement 1. Linear regression of quantitative flow cytometry analysis. (A) Gating strategy. Liposomes were selected according to side and forward scatter areas. Single liposomes were gated based on the height of forward scatter correlated to the area of forward scatter. […] Detergent was removed, and liposomes were extensively washed by centrifugation. […] Equal concentrations of fluorescein served as loading control (right). (C) Linear regression. […] Mean values ± SD (n = 3) are shown. Figure 6-figure supplement 1-source data 1. Source Data for Figure 6-figure supplement 1. [drawing 5] […] To confirm the conformational arrest of wild-type TmrAB by CP13^F and the slow turnover in the presence of CP14^F, we examined two successive cycles of conformational transitions by flow cytometry. […] Both steps were repeated to yield two consecutive cycles of conformational transitions. […] Taken together, the macrocyclic peptides CP13 and CP14 stabilize a pre-hydrolysis state, thus allowing a single-turnover translocation along the IF-to-OF switch. […] Transport reactions were stopped by adding EDTA (10 mM). […] For regression analysis, liposomes were loaded with increasing amounts of peptides to convert the fluorescence intensities into the number of peptides per liposome ([Stefan et al., 2020]). […] Equal amounts of carboxyfluorescein (Sigma-Aldrich) served as loading control. Detergent was removed by adding SM-2 Bio-beads (Bio-Rad) as detailed above. Liposomes were harvested for 30 min at 270,000 g and washed three times by centrifugation. Generally, 20,000-100,000 proteoliposomes were selected according to sideward and forward scatter areas. Single events were selected based on the height of forward scatter plotted against the area of forward scatter. […] Data represent mean ± SD from three experiments.

[1] = time 5 min (after first 5 min at 45°C)
[2] = time 65 min (after 60 min at 4°C)
[3] = time 70 min (after second 5 min at 45°C)
[4] = time 130 min (after second 60 min at 4°C)
[5] = 3 min at 45°C, without CP 10.49
[6] = 5 min at 45°C, without CP 18.11
[7] = 10 min at 45°C, without CP 30.27
[8] = 20 min at 45°C, without CP 40.72
[9] = 40 min at 45°C, without CP 51.44

Row | SMILES | Peptide transport in two successive IF-to-OF cycles | Effect on C4^ATTO655 peptide translocation | Transported C4^ATTO655, Peptides/liposome [Peptides/liposome] | Peptides/liposome, two consecutive transport cycles (time 0 min) [Peptides/liposome] | Peptides/liposome, two consecutive transport cycles [1] [Peptides/liposome] | Peptides/liposome, two consecutive transport cycles [2] [Peptides/liposome] | Peptides/liposome, two consecutive transport cycles [3] [Peptides/liposome] | Peptides/liposome, two consecutive transport cycles [4] [Peptides/liposome] | Peptides/liposome, time course (1 min at 45°C) [Peptides/liposome] | Mean fluorescence intensity * 10^3, time course (1 min at 45°C, without CP 2.29) | Peptides/liposome, time course (3 min at 45°C) [Peptides/liposome] | Mean fluorescence intensity * 10^3, time course [5] | Peptides/liposome, time course (5 min at 45°C) [Peptides/liposome] | Mean fluorescence intensity * 10^3, time course [6] | Peptides/liposome, time course (10 min at 45°C) [Peptides/liposome] | Mean fluorescence intensity * 10^3, time course [7] | Peptides/liposome, time course (20 min at 45°C) [Peptides/liposome] | Mean fluorescence intensity * 10^3, time course [8] | Peptides/liposome, time course (40 min at 45°C) [Peptides/liposome] | Mean fluorescence intensity * 10^3, time course [9] | further results
1 | CC(C)C[C@@H]1NC(=O)[C@H](Cc2ccccc2)NC(=O)CNC(=O)[C@H](CO)NC(=O)[C@H](Cc2ccccc2)NC(=O)[C@H](CC(=O)O)NC(=O)[C@@H]2CCCN2C(=O)[C@H]([C@@H](C)O)NC(=O)[C@@H](Cc2ccc(O)cc2)NC(=O)CSC[C@@H](C(=O)NCC(=O)N[C@@H](CO)C(=O)NCCC(=O)NCCC(=O)N[C@@H](CCCNC(=N)N)C(=O)N[C@@H](CCCCNC(=O)c2ccc3c(c2)C(=O)OC32c3ccc(O)cc3Oc3cc(O)ccc32)C(N)=O)NC(=O)[C@H](C)NC(=O)[C@H](CC(N)=O)NC(=O)[C@H](CCCNC(=N)N)NC(=O)[C@H](CC(C)C)NC(=O)[C@H](Cc2ccccc2)NC(=O)[C@H](C)NC1=O [CP12] ({CH2CO}-[dY]TPDFSGFLAFLRNACGS[βAla][βAla]RK(5FAM)-NH2; thioether N-16) | peptide translocation was completely abrogated | completely prevented C4^ATTO655 peptide translocation | 4.93 | 0.00 | 1.11 | 1.17 | 1.70 | 1.01 | – | – | – | – | – | – | – | – | – | – | – | – | –
2 | CC[C@H](C)[C@@H]1NC(=O)[C@H]([C@@H](C)O)NC(=O)[C@H](CC(C)C)NC(=O)[C@H](Cc2c[nH]c3ccccc23)NC(=O)[C@H](Cc2ccccc2)NC(=O)[C@H](CC(N)=O)NC(=O)[C@H](CCC(=O)O)NC(=O)[C@H](CC(C)C)NC(=O)[C@H](CS)NC(=O)[C@H](Cc2c[nH]cn2)NC(=O)[C@H](CO)NC(=O)[C@@H](Cc2ccc(O)cc2)NC(=O)CSC[C@@H](C(=O)NCC(=O)N[C@@H](CO)C(=O)NCCC(=O)NCCC(=O)N[C@@H](CCCNC(=N)N)C(=O)N[C@@H](CCCCNC(=O)c2ccc3c(c2)C(=O)OC32c3ccc(O)cc3Oc3cc(O)ccc32)C(N)=O)NC(=O)[C@H](CC(C)C)NC1=O [CP6] ({CH2CO}-[dY]SHCLENFWLTILCGS[βAla][βAla]RK(5FAM)-NH2; thioether N-14) | peptide translocation was completely abrogated | completely prevented C4^ATTO655 peptide translocation | 4.74 | 0.00 | 0.17 | 0.01 | 1.93 | 1.54 | – | – | – | – | – | – | – | – | – | – | – | – | –
3 | CC[C@H](C)[C@@H]1NC(=O)[C@H](Cc2c[nH]c3ccccc23)NC(=O)[C@H](CC(N)=O)NC(=O)[C@H](C)NC(=O)[C@H](CO)NC(=O)[C@@H]2CCCN2C(=O)[C@H](CC(=O)O)NC(=O)[C@@H](Cc2ccc(O)cc2)NC(=O)CSC[C@@H](C(=O)NCC(=O)N[C@@H](CO)C(=O)NCCC(=O)NCCC(=O)N[C@@H](CCCNC(=N)N)C(=O)N[C@@H](CCCCNC(=O)c2ccc3c(c2)C(=O)OC32c3ccc(O)cc3Oc3cc(O)ccc32)C(N)=O)NC(=O)[C@H]([C@@H](C)O)NC(=O)[C@H](CC(C)C)NC(=O)[C@H](CC(C)C)NC(=O)[C@H](C(C)C)NC(=O)[C@H](CC(C)C)NC1=O [CP13] ({CH2CO}-[dY]DPSANWILVLLTCGS[βAla][βAla]RK(5FAM)-NH2; thioether N-14; C-terminus assumed) | peptide transport was exclusively observed along the first IF-to-OF switch | – | 13.69 | 0.00 | 9.32 | 10.24 | 10.66 | 11.66 | -0.42 | -0.03 * 10^3 | 2.53 | 0.17 * 10^3 | 3.33 | 0.23 * 10^3 | 5.08 | 0.35 * 10^3 | 4.95 | 0.34 * 10^3 | 5.22 | 0.36 * 10^3 | C4^ATTO655 peptides per liposome transported along a single IF-to-OF switch: approx. 10 peptides per liposome; Peptide transport rate compared to control without CP^Fs: drastically reduced the peptide transport rate; Turnover of wild-type TmrAB over long-term incubation: a single turnover driving peptide transport was observed; Period of conformational arrest of wild-type TmrAB (two consecutive cycles): 2 h
4 | CC(C)[C@@H]1NC(=O)[C@H](Cc2ccccc2)NC(=O)[C@@H]2CCCN2C(=O)[C@H](CC(N)=O)NC(=O)[C@H](Cc2c[nH]c3ccccc23)NC(=O)[C@H](C(C)C)NC(=O)[C@H](Cc2ccc(O)cc2)NC(=O)[C@H](Cc2ccccc2)NC(=O)[C@@H](Cc2ccc(O)cc2)NC(=O)CSC[C@@H](C(=O)NCC(=O)N[C@@H](CO)C(=O)NCCC(=O)NCCC(=O)N[C@@H](CCCNC(=N)N)C(=O)N[C@@H](CCCCNC(=O)c2ccc3c(c2)C(=O)OC32c3ccc(O)cc3Oc3cc(O)ccc32)C(N)=O)NC(=O)[C@H](CCCCN)NC(=O)[C@H](Cc2ccccc2)NC1=O [CP14] ({CH2CO}-[dY]FYVWNPFVFKCGS[βAla][βAla]RK(5FAM)-NH2; thioether N-12; C-terminus assumed) | peptide transport was detected in both IF-to-OF switches | – | 38.81 | 0.00 | 36.27 | 37.68 | 44.92 | 48.07 | 0.03 | 0.00 * 10^3 | 6.21 | 0.43 * 10^3 | 14.91 | 1.02 * 10^3 | 24.30 | 1.67 * 10^3 | 38.29 | 2.63 * 10^3 | 48.57 | 3.34 * 10^3 | C4^ATTO655 peptides per liposome transported along a single IF-to-OF switch: ~ 30 peptides per liposome; Peptide transport rate compared to control without CP^Fs: drastically reduced the peptide transport rate; Turnover of wild-type TmrAB over long-term incubation: slow turnover
